US6974835B2, “Methods for decreasing cell proliferation based on (3r,4r)-Δ8-tetrahydrocannabinol-11-oic acids” (Indevus Pharmaceuticals, Inc., priority 2000, dated 2005)

Columns and labels:
tumor cells = experiment: Stereospecificity of inhibition of cell proliferation (D-isomer vs L-isomer); format: cell-based; details: 25 μM dose, FIG. 2, p<0.001
U373 = experiment: 48 hour MTT assay, U373; details: U373 (Brain), 25 μM
Du145 = experiment: 48 hour MTT assay, Du145; details: Du145 (Prostate), 25 μM
C6 glioma cells [1] = experiment: Microscopy of treated cells (cell size, refractile bodies, electron microscopy)
J82 = experiment: 48 hour MTT assay, J82; details: J82 (Bladder), 25 μM
HS578T = experiment: 48 hour MTT assay, HS578T; details: HS578T (Breast), 25 μM
[2] = tested on: human cell lines derived from a variety of cancer types (brain, breast, bladder, lung, and prostate); experiment: 48 hour MTT assay, mean over the human cancer cell lines; details: 25 μM, mean of the ten lines of Table 1
U87 = experiment: 48 hour MTT assay, U87; details: U87 (Brain), 25 μM
PC3 = experiment: 48 hour MTT assay, PC3; details: PC3 (Prostate), 25 μM
C6 cells = experiment: Lipid incorporation assay; format: cell-based; details: 25 μM, 14C-labeled arachidonic acid, 48 hours; for neutral lipids, increase above basal levels: FIG. 3
WI38 cells = experiment: Phase microscopy for refractile bodies, WI38; format: cell-based, rat; details: 48 hours, same dosage
C6 glioma cells [3] = experiment: Viability by trypan blue exclusion
Protein kinase C (PKC) = Protein kinase C (PKC) assay; format: cell-based; details: C6 cells, 25 μM, for one hour
Method: Protein kinase C (PKC) assay. Cells were transferred into MEM media (0.5% serum) and cultured overnight. The next day, cells were treated with either DMSO or 25 μM ajulemic acid for the specified incubation time, after which the plates were trypsinized. 5×10^6 trypsinized cells were assayed for PKC activity using a kit (Calbiochem, cat. no. 53984).

[4] = tested on: human glioma cell line U87 injected subcutaneously in nude mice; experiment: In vivo subcutaneous model; details: 0.1 mg/kg thrice weekly, FIG. 4
Method: In vivo subcutaneous model. 10^6 U87 cells were injected into the right flank muscle of male nu/nu BALBc mice (Charles River). Two days after inoculation, the mice received either 0.1 mg/kg ajulemic acid in 0.05 ml of safflower oil or 0.05 ml safflower oil by oral administration. Thereafter, identical dosings were performed on each Monday, Wednesday, and Friday. When visible tumors appeared, the size of the tumors were estimated by averaging the values of two roughly perpendicular diameters measurements. Visible tumors were measured on the days of drug administration.

C6 glioma cells [5] = experiment: Co-incubation with a CB1 antagonist, cell proliferation; format: cell-based; details: 3.2 μM of a specific CB1 antagonist

CCCCCCC(C)(C)c1cc(O)c2c(c1)OC(C)(C)[C@@H]1CC=C(C(=O)O)C[C@@H]21 (single isomer, unassigned) [D-isomer of ajulemic acid]
potency of D-isomer compared to the L-isomer of ajulemic acid (tumor cells): marked decrease in the potency

CCCCCc1cc(O)c2c(c1)OC(C)(C)[C@@H]1CC=C(C(=O)O)C[C@@H]21 [THC-11-oic acid]
Percent inhibition of human cancer cell line growth (U373): 0%
Percent inhibition of human cancer cell line growth (Du145): 7 ± 3%
refractile bodies noted (in words) (C6 glioma cells [1]; C6 glioma cells, 25 μM, 48 hours): no refractile bodies were noted
Percent inhibition of human cancer cell line growth (J82): 1 ± 1%
Percent inhibition of human cancer cell line growth (HS578T): 2 ± 1%
inhibition levels (mean±SD) over the human cell lines [2]: 13.1±18.5%
Percent inhibition of human cancer cell line growth (U87): 5 ± 1%
Percent inhibition of human cancer cell line growth (PC3): 1 ± 1%
neutral lipids, increase above basal levels (C6 cells): significant increase above basal levels was only noted for ajulemic acid

CCCCCCC(C)(C)c1cc(O)c2c(c1)OC(C)(C)[C@@H]1CC=C(C(=O)O)C[C@@H]21 [ajulemic acid, 1′,1′-dimethylheptyl-Δ^8-THC-11-oic acid]
refractile bodies noted (in words) (WI38 cells): no refractile bodies were noted
viability rate (C6 glioma cells [3]): > 95%
cell size (C6 glioma cells [1]; after 48 hours of exposure): marked increase in cell size
appearance under electron microscopy (C6 glioma cells [1]; treated cells): neither apoptotic nor necrotic
PKC activity versus control (Protein kinase C (PKC)): approximately two-fold above that of control
appearance and size of tumors (in words) [4]: delay in both the appearance and size of tumors
change in potency on co-incubation with CB1 antagonist (C6 glioma cells [5]): slight potentiation
content of tri- and di-glyceride versus controls (C6 cells): over three-fold greater than in controls
neutral lipids, increase above basal levels (C6 cells): significant increase above basal levels

CCCCCc1cc(O)c2c(c1)OC(C)(C)[C@@H]1CCC(C)=C[C@@H]21 [Δ^9-THC, tetrahydrocannabinol]
change in potency on co-incubation with CB1 antagonist (C6 glioma cells [5]): 150%
neutral lipids, increase above basal levels (C6 cells): significant increase above basal levels was only noted for ajulemic acid
